Assay results reported in publication PMC4447944 (The Journal of Biological Chemistry, 2015).

Experiments:
hABL1(F317I) = biological target: T1, hABL1(F317I) (Homo sapiens, UniProt P00519, F317I); assay: KINOMEscan; format: binding
T1 construct: purchased DiscoverX (KINOMEscan platform)

hABL1(pM351T) = biological target: T2, hABL1(pM351T) (Homo sapiens, UniProt P00519, M351T); assay: KINOMEscan; format: binding
T2 construct: purchased DiscoverX (KINOMEscan platform)

hABL1(pY253F) = biological target: T3, hABL1(pY253F) (Homo sapiens, UniProt P00519, Y253F); assay: KINOMEscan; format: binding
T3 construct: purchased DiscoverX (KINOMEscan platform)

hALK = biological target: T4, hALK (Homo sapiens, UniProt Q9UM73); assay: KINOMEscan; format: binding
T4 construct: purchased DiscoverX

hARK5 = biological target: T5, hARK5 (Homo sapiens, UniProt O60285); assay: KINOMEscan; format: binding
T5 construct: purchased DiscoverX

hBMX = biological target: T6, hBMX (Homo sapiens, UniProt P51813); assay: KINOMEscan; format: binding
T6 construct: purchased DiscoverX
T6 sequence (P51813 whole entry): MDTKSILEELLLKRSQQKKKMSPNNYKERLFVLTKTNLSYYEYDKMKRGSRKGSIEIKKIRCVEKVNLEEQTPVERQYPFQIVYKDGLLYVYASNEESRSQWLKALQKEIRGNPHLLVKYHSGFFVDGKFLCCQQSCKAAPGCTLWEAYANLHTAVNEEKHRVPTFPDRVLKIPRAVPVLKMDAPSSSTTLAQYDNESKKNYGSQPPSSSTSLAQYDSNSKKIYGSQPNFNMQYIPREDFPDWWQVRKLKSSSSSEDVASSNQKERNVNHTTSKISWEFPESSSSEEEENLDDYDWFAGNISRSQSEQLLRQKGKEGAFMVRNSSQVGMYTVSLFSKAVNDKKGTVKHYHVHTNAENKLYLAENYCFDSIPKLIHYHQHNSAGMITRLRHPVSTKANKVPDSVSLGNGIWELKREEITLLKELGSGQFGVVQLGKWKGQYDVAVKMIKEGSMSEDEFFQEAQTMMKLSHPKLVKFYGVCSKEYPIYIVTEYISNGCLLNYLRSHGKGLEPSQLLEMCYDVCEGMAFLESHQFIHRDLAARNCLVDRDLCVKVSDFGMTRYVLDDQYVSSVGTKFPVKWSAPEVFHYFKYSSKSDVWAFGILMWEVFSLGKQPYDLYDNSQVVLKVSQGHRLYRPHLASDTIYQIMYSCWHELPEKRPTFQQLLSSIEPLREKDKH

hCSNK1G2 = biological target: T7, hCSNK1G2 (Homo sapiens, UniProt P78368); assay: KINOMEscan; format: binding
T7 construct: purchased DiscoverX (KINOMEscan platform)

hDLK = biological target: T8, hDLK (Homo sapiens, UniProt Q12852); assay: KINOMEscan; format: binding
T8 construct: purchased DiscoverX (KINOMEscan platform)

hEGFR(S752-I759del) = biological target: T9, hEGFR(S752-I759del) (Homo sapiens, UniProt P00533, DEL752-759); assay: KINOMEscan; format: binding
T9 construct: purchased DiscoverX

hEPHA1 = biological target: T10, hEPHA1 (Homo sapiens, UniProt P21709); assay: KINOMEscan; format: binding
T10 construct: purchased DiscoverX

hEPHA2 = biological target: T11, hEPHA2 (Homo sapiens, UniProt P29317); assay: KINOMEscan; format: binding
T11 construct: purchased DiscoverX

hEPHB1 = biological target: T12, hEPHB1 (Homo sapiens, UniProt P54762); assay: KINOMEscan; format: binding
T12 construct: purchased DiscoverX

hERBB4 = biological target: T13, hERBB4 (Homo sapiens, UniProt Q15303); assay: KINOMEscan; format: binding
T13 construct: purchased DiscoverX
T13 sequence (Q15303 26-1308): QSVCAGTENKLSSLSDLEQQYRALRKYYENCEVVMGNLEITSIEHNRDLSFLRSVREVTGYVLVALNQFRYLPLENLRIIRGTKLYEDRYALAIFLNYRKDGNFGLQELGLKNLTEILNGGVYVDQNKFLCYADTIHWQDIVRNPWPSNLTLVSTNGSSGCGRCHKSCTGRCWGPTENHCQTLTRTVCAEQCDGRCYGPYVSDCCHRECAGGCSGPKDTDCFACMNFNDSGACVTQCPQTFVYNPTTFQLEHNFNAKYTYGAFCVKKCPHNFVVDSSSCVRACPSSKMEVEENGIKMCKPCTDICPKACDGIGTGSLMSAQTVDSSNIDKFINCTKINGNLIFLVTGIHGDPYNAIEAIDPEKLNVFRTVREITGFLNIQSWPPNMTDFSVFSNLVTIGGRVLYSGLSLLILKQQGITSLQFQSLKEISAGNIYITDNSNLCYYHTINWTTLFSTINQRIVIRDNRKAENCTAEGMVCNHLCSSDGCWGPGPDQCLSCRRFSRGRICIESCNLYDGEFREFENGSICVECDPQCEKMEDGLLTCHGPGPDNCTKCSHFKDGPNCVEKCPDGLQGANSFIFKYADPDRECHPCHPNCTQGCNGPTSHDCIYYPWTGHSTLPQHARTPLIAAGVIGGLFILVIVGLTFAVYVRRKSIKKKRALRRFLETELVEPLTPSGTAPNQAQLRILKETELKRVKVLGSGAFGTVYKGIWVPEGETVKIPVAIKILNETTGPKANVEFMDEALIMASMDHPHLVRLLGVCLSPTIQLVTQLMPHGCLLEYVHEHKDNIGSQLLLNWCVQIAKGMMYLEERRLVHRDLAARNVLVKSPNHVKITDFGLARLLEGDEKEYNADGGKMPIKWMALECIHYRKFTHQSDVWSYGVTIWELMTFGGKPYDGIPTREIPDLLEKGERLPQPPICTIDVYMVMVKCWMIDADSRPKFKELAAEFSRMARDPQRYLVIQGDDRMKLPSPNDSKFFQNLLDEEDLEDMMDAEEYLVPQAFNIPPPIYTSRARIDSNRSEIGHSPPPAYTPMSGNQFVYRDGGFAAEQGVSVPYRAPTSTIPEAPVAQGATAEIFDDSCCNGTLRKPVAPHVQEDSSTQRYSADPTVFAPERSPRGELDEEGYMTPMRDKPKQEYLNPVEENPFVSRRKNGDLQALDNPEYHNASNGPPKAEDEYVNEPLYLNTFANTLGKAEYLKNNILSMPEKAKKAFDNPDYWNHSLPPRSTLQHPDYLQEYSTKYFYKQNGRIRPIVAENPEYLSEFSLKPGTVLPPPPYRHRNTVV

hLYN = biological target: T14, hLYN (Homo sapiens, UniProt P07948); assay: KINOMEscan; format: binding
T14 construct: purchased DiscoverX (KINOMEscan platform)

hMAP3K2 = biological target: T15, hMAP3K2 (Homo sapiens, UniProt Q9Y2U5); assay: KINOMEscan; format: binding
T15 construct: purchased DiscoverX (KINOMEscan platform)

hMAPKAPK5 = biological target: T16, hMAPKAPK5 (Homo sapiens, UniProt Q8IW41); assay: KINOMEscan; format: binding
T16 construct: purchased DiscoverX
T16 sequence (Q8IW41 whole entry): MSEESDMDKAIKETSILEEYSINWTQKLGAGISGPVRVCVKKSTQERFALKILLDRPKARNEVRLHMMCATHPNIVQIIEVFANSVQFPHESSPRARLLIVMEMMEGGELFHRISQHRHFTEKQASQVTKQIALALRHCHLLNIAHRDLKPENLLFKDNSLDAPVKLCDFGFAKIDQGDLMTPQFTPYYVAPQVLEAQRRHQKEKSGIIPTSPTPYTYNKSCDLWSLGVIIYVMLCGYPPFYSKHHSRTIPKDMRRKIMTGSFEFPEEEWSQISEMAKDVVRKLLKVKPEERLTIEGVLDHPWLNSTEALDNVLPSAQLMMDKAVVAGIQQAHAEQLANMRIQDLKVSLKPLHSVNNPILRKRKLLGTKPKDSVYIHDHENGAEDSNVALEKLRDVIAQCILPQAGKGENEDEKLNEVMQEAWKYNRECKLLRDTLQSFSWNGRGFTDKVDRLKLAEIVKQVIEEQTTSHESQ

hMET(Y1235D) = biological target: T17, hMET(Y1235D) (Homo sapiens, UniProt P08581, Y1235D); assay: KINOMEscan; format: binding
T17 construct: purchased DiscoverX

hQSK = biological target: T18, hQSK (Homo sapiens, UniProt Q9Y2K2); assay: KINOMEscan; format: binding
T18 construct: purchased DiscoverX (KINOMEscan platform)

hRET(M918T) = biological target: T19, hRET(M918T) (Homo sapiens, UniProt P07949, M918T); assay: KINOMEscan; format: binding
T19 construct: purchased DiscoverX (KINOMEscan platform)

hRIPK5 = biological target: T20, hRIPK5 (Homo sapiens, UniProt Q6XUX3); assay: KINOMEscan; format: binding
T20 construct: purchased DiscoverX (KINOMEscan platform)

hSGK2 = biological target: T21, hSGK2 (Homo sapiens, UniProt Q9HBY8); assay: KINOMEscan; format: binding
T21 construct: purchased DiscoverX (KINOMEscan platform)

hTGFBR1 = biological target: T22, hTGFBR1 (Homo sapiens, UniProt P36897); assay: KINOMEscan; format: binding
T22 construct: purchased DiscoverX
T22 sequence (P36897 34-503): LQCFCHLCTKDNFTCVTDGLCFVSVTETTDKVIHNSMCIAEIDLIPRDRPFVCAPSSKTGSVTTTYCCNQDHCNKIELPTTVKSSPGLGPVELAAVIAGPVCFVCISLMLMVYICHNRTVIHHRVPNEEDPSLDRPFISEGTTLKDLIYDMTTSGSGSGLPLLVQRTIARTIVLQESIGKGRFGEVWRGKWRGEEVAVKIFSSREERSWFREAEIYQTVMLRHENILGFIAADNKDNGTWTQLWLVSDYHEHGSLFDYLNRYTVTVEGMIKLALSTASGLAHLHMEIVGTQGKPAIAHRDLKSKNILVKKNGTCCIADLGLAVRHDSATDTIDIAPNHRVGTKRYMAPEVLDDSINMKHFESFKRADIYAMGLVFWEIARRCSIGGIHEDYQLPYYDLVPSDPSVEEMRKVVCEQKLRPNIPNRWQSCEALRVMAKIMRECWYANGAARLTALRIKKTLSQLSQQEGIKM

hRXRα = biological target: T23, hRXRα (Homo sapiens, UniProt P19793); assay: Nuclear hormone receptor assay (Eurofins-CEREP); details: read-out: Relative IC50
T23 construct: Eurofins-CEREP
T23 sequence (P19793 whole entry): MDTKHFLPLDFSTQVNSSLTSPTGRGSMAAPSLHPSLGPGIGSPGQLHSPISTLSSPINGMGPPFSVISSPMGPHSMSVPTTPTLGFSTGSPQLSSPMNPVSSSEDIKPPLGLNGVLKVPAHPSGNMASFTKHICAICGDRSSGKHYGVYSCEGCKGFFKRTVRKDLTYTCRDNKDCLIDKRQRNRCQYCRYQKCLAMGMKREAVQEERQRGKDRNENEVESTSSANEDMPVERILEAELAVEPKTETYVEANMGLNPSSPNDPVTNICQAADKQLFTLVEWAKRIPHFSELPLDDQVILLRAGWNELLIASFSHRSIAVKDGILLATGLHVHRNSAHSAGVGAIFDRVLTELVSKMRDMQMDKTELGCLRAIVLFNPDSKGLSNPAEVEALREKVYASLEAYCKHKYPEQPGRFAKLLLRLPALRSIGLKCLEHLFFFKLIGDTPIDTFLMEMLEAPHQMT

hADRα2A = biological target: T24, hADRα2A (Homo sapiens, UniProt P08913); assay: cAMP Agonist (Eurofins-CEREP); details: @ 10 μM
T24 sequence (P08913 1-465): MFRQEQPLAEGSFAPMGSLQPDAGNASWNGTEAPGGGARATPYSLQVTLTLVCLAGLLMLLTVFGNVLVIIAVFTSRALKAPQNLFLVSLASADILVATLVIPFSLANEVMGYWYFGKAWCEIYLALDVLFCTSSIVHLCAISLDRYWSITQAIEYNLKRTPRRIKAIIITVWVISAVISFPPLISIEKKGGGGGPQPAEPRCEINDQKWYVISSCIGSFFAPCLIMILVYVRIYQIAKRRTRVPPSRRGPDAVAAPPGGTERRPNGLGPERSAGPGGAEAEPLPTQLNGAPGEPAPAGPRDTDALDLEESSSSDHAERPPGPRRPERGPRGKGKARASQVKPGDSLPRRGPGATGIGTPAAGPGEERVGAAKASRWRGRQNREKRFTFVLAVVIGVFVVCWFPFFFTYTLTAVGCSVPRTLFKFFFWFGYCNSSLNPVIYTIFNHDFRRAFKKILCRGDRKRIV

hADORA3 = biological target: T25, hADORA3 (Homo sapiens, UniProt P0DMS8); assay: cAMP Potentiation (Eurofins-CEREP); details: @ 10 μM
T25 sequence (P0DMS8 1-318): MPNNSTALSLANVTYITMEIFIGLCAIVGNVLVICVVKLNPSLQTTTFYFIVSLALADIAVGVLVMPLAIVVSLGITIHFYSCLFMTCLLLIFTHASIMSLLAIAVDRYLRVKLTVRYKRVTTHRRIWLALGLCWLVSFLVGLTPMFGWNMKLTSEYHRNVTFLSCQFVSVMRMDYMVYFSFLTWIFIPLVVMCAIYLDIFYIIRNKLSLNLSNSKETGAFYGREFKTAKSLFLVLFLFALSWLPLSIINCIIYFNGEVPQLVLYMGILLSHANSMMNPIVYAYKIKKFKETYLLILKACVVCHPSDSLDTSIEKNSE

hADRβ2 = hADRβ2 (Homo sapiens, UniProt P07550); assay: cAMP Potentiation (Eurofins-CEREP); details: @ 10 μM
Chain of hADRβ2 (P07550 whole entry): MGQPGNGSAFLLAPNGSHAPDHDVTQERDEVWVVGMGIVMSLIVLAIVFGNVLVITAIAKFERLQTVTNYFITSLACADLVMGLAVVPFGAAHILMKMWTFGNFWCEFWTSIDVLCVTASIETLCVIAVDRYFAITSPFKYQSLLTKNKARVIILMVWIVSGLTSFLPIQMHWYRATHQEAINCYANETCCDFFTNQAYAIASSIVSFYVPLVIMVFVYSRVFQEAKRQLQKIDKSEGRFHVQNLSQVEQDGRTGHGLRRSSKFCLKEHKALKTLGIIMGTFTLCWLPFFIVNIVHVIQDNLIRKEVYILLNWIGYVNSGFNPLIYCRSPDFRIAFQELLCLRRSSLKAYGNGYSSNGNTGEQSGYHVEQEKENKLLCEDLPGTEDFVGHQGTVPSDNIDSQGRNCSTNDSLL

hADRβ1 = hADRβ1 (Homo sapiens, UniProt P08588); assay: β-arrestin Antagonist (Eurofins-CEREP); details: read-out: % Effect, Inhibition
hH1 [1] = biological target: T26, hH1 (Homo sapiens, UniProt P35367); assay: β-arrestin Antagonist (Eurofins-CEREP); details: read-out: % Effect, Inhibition
T26 sequence (P35367 whole entry): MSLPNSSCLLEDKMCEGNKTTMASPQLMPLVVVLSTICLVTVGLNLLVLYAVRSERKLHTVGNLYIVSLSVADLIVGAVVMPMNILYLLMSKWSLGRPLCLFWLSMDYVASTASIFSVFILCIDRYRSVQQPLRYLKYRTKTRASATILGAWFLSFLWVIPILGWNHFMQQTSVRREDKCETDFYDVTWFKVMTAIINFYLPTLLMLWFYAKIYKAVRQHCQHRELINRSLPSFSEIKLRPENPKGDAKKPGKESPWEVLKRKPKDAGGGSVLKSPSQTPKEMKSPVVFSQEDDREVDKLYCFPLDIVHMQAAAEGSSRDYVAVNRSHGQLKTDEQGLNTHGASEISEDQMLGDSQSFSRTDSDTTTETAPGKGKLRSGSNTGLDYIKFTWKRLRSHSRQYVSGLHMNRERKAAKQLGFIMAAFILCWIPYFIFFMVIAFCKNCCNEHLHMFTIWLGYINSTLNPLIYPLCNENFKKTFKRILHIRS

hH1 [2] = biological target: T26, hH1; assay: Ca Mobilization Agonist (Eurofins-CEREP); details: @ 13.3 μM
h5HT2B = h5HT2B (Homo sapiens, UniProt P41595); assay: Calcium Mobilization Potentiation (Eurofins-CEREP); details: @ 10 μM
Chain of h5HT2B (P41595 whole entry): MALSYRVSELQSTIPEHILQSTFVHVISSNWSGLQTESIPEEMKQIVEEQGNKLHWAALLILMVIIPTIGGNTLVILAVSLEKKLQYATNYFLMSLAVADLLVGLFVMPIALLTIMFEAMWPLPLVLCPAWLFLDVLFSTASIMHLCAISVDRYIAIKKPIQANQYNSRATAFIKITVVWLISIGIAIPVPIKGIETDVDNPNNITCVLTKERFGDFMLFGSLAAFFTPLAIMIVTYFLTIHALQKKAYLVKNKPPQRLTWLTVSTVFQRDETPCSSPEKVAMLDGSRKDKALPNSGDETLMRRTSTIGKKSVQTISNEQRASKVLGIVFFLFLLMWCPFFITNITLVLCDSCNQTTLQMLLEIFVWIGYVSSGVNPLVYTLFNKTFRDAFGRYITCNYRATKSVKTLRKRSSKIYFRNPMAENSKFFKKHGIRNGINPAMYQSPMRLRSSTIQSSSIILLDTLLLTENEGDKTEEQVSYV

In the case of `Cc1cn(CCN2CCN(c3ccccc3-c3cc(C#N)cc(C(=O)NCCCN4CCCC4)c3)CC2)c2ccccc12` [LLY-507, 3-cyano-5-{2-[4-[2-(3-methylindol-1-yl)ethyl]piperazin-1-yl]-phenyl}-N-[(3-pyrrolidin-1-yl)propyl]benzamide], the IC50 (hABL1(F317I)) is reported as greater than 20 µM, the IC50 (hABL1(pM351T)) is reported as greater than 20 µM and the IC50 (hABL1(pY253F)) is reported as greater than 20 µM. The IC50 (hALK) was greater than 20 µM, the IC50 (hARK5) was greater than 20 µM and the IC50 (hBMX) was greater than 20 µM. For the same compound, the IC50 (hCSNK1G2) was greater than 20 µM, the IC50 (hDLK) was greater than 20 µM and the IC50 (hEGFR(S752-I759del)) was greater than 20 µM. The IC50 (hEPHA1) was greater than 20 µM, the IC50 (hEPHA2) was greater than 20 µM and the IC50 (hEPHB1) was greater than 20 µM. It also gave an IC50 (hERBB4) greater than 20 µM, an IC50 (hLYN) greater than 20 µM and an IC50 (hMAP3K2) greater than 20 µM. For the same compound, the IC50 (hMAPKAPK5) was greater than 20 µM, the IC50 (hMET(Y1235D)) was greater than 20 µM and the IC50 (hQSK) was greater than 20 µM. For the same compound, the IC50 (hRET(M918T)) was greater than 20 µM, the IC50 (hRIPK5) was greater than 20 µM and the IC50 (hSGK2) was greater than 20 µM. The IC50 (hTGFBR1) was greater than 20 µM, the IC50 (hRXRα) was greater than 10 µM and the “% Effect, Stimulation” value (hADRα2A) was 0.2%. For the same compound, the “% Effect, Potentiation” value (hADORA3) was -7.3%, the “% Effect, Potentiation” value (hADRβ2) was -27.2% and the inhibition at 10 µM (hADRβ1) was -6%. For the same compound, the inhibition at 10 µM (hH1 [1]) was 30.1%, the “% Effect, Stimulation” value (hH1 [2]) was -2.8% and the “% Effect, Potentiation” value (h5HT2B) was -7.3%.
